Where two headings read alike, the source gives them in different places.
How the values were obtained:
5-HT1B receptor = target: T1, 5-HT1B receptor (Homo sapiens, UniProt P28222); experiment: cAMP accumulation functional assay at 5-HT1B; format: cell-based; settings: agonist, cAMP accumulation, max dose; read-out: 5-HT1B % Act @ Max Dose
T1 construct: expressed in transfected cells
Experimental: Functional Assay at 5-HT1B. Agonist activity at 5-HT1B was determined using a CAMP accumulation protocol at WuXi AppTec (Hong Kong) Limited according to their standard protocols. Briefly, stably transfected cells were plated in an OptiPlate-384 well plate, incubated at RT for 60 mins, and cAMP standard solution (800 nM, 10 μL) was added to the blank well. Then, 10 μL detection reagent was added to each well, the plate incubated for 60 mins at RT, and the plate read using En Vision.

5-HT2B receptor = target: T2, 5-HT2B receptor (Homo sapiens, UniProt P41595); experiment: cell-based; format: cell-based; settings: Ca2+ flux; for Emax: HEK293, agonist, HEK293, max dose, read-out: 5-HT2B % Act @ Max Dose; for EC50: agonist, HEK293
T2 construct: expressed in transfected cells; host or cells: HEK293, stably transfected
T2 sequence (P41595 whole entry): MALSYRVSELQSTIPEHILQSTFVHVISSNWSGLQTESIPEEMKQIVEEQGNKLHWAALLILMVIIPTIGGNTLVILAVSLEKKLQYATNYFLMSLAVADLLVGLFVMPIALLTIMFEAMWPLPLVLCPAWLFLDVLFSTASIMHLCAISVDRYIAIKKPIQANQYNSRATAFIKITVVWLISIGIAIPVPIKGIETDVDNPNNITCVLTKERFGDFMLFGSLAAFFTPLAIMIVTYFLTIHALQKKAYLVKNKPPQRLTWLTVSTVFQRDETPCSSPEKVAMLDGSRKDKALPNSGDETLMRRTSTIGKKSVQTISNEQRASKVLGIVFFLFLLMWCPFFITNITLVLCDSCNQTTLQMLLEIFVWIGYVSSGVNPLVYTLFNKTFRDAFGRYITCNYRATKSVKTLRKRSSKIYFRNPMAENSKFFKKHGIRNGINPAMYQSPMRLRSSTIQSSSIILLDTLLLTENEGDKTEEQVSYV
Experimental: (§1) Functional Assays at 5-HT2A, 5-HT2B, and 5-HT1A. Agonist activity at 5-HT2A, 5-HT2B, 5HT2C and 5-HT1A receptors was determined using a FLIPR Ca^2+ flux assay at WuXi AppTec (Hong Kong) Limited according to their standard protocols. Briefly, stably transfected cells expressing the receptor of interest and Gα15 in the case of 5-HT1A (HEK293 for 5-HT2A and 5-HT2B; CHO cells for 5-HT1A) were grown and plated in a 384 well plate and incubated at 37° C. and 5% CO2 overnight. A solution of 250 mM probenecid in 1 mL FLIPR assay buffer was prepared fresh. This was combined with a fluorescent dye (Fluo-4 Direct™) to make a final assay concentration of 2.5 mM. […] The fluorescent dye was then added to the assay plate along with assay buffer to a final volume of 40 μL. The cell plate was incubated for 50 min at 37° C. and 5% CO2 and placed into the FLIPR Tetra along with the compound plate. 10 μL of references and compounds were then transferred from the compound plate into the cell plate and the fluorescent signal was read.

5-HT2A receptor [1] = target: T3, 5-HT2A receptor (Homo sapiens, UniProt P28223); experiment: cell-based; format: cell-based; design: expressed in transfected cells; host or cells: HEK293, stably transfected; settings: Ca2+ flux; for Emax: HEK293, agonist, HEK293, max dose, read-out: 5-HT2A % Act @ Max Dose; for EC50: agonist, HEK293
T3 sequence (P28223 whole entry): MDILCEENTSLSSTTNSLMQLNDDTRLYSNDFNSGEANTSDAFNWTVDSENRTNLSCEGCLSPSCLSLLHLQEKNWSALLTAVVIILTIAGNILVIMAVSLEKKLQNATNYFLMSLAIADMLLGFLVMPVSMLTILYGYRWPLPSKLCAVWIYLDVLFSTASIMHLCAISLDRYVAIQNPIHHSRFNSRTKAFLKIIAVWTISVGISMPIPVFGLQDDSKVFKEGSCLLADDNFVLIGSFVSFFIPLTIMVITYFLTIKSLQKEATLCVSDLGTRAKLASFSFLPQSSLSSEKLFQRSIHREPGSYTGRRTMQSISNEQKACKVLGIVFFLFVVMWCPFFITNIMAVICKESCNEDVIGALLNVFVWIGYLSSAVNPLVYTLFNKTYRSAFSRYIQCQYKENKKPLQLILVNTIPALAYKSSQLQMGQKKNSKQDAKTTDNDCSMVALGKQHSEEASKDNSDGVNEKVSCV
Experimental: as §1

5-HT1A receptor = target: T4, 5-HT1A receptor (Homo sapiens, UniProt P08908); experiment: cell-based; settings: agonist, Ca2+ flux; for Emax: CHO, CHO cells with Gα15, max dose, read-out: 5-HT1A % Act @ Max Dose; for EC50: CHO cells with Gα15
T4 construct: expressed in transfected cells; host or cells: CHO cells, stably transfected
T4 sequence (P08908 1-422): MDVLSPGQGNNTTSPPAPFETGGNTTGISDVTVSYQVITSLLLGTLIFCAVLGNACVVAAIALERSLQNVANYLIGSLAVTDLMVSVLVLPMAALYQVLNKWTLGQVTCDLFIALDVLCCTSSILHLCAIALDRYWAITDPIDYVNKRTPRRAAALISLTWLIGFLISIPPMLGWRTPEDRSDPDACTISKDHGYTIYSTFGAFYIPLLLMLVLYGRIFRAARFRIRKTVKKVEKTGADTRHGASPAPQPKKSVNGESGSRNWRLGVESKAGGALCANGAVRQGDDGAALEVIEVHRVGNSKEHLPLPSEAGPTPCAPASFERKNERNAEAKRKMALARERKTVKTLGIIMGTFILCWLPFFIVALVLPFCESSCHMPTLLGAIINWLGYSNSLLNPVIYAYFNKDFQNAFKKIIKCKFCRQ
Experimental: as §1

in vitro [2] = format: in vitro ADME, rat; settings: rat, microsomes, RLM (male Sprague-Dawley) 0.50 mg/mL, NADPH 1 mM, 1 μM compound, pH 7.4, 37° C., 60 min; for microsomal CLint: read-out: Intrinsic clearance (Clint); for half-life: read-out: half-life (t1/2)
Description: RLM Stability Pooled RLM from male Sprague-Dawley rats (Xenotech R1000) were used.

in vitro [3] = format: in vitro ADME, human; settings: human, microsomes, HLM 0.50 mg/mL, NADPH 1 mM, 1 μM compound, pH 7.4, 37° C., 60 min; for microsomal CLint: read-out: Intrinsic clearance (Clint); for half-life: read-out: half-life (t1/2)
in vitro [4] = format: in vitro ADME, mouse; settings: mouse, microsomes, MLM (male CD-1) 0.50 mg/mL, NADPH 1 mM, 1 μM compound, pH 7.4, 37° C., 60 min; for microsomal CLint: read-out: Intrinsic clearance (Clint); for half-life: read-out: half-life (t1/2)
Description: MLM Stability Pooled MLM from male CD-1 mice (BIOIVT M00501) were used.

5-HT2A receptor [5] = target: T3, 5-HT2A receptor; experiment: biochemical; format: binding; design: expressed in transfected cells; host or cells: HEK293, stably transfected; settings: [3H]ketanserin 1 nM; HEK293 stable cell line; 1 h, 25 °C
Experimental: Affinity of the test compounds for the 5-HT2A receptor was determined in radioligand binding experiments with [^3H]ketanserin by WuXi AppTec (Hong Kong) Limited, using methods adapted from the literature and under conditions described in Table 1.

T1 sequence (P28222 whole entry): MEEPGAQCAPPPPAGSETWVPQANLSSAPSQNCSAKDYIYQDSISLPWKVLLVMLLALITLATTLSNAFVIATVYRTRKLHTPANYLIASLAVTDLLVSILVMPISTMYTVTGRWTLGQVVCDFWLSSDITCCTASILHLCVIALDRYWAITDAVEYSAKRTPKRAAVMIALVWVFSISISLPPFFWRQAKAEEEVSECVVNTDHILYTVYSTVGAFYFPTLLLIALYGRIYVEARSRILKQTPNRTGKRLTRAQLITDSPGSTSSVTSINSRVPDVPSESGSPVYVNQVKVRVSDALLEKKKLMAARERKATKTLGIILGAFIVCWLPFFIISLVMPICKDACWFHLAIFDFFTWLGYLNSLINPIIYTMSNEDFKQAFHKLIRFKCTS

Row | Compound | Emax (5-HT1B receptor) | Emax (5-HT2B receptor) | Emax (5-HT2A receptor [1]) | Emax (5-HT1A receptor) | microsomal CLint (in vitro [2]) | half-life (in vitro [2]) | EC50 (5-HT2B receptor) | microsomal CLint (in vitro [3]) | half-life (in vitro [3]) | microsomal CLint (in vitro [4]) | half-life (in vitro [4]) | EC50 (5-HT2A receptor [1]) | Ki (5-HT2A receptor [5]) | EC50 (5-HT1A receptor)
1 | CCCN1C[C@H](C(=O)N(CC)CC)C=C2c3cccc4[nH]c(Br)c(c34)C[C@H]21 [Compound 9, (6aR,9R)-5-bromo-N,N-diethyl-7-propyl-4,6,6a,7,8,9-hexahydroindolo[4,3-fg]quinoline-9-carboxamide] | 81.5% | 89.6% | 75.8% | 101% | – | – | – | – | – | – | – | – | – | –
2 | C[C@H]1C[C@H](C)N1C(=O)[C@@H]1C=C2c3cccc4[nH]cc(c34)C[C@H]2N(CCCF)C1 [Compound 26, ((2S,4S)-2,4-dimethylazetidin-1-yl)((6aR,9R)-7-(3-fluoropropyl)-4,6,6a,7,8,9-hexahydroindolo[4,3-fg]quinolin-9-yl)methanone] | 77.2% | 101% | 83.2% | 97.9% | – | – | – | – | – | – | – | – | – | –
3 | C=CCN1C[C@H](C(=O)N2[C@@H](C)C[C@@H]2C)C=C2c3cccc4[nH]cc(c34)C[C@H]21 [Compound 27, ((6aR,9R)-7-allyl-4,6,6a,7,8,9-hexahydroindolo[4,3-fg]quinolin-9-yl)((2S,4S)-2,4-dimethylazetidin-1-yl)methanone] | 96.9% | 96% | 81.1% | 90.8% | – | – | – | – | – | – | – | – | – | –
4 | CN1C[C@H](C(=O)N(CCF)CCF)C=C2c3cccc4[nH]cc(c34)C[C@H]21 [Compound 38, (6aR,9R)—N,N-bis(2-fluoroethyl)-7-methyl-4,6,6a,7,8,9-hexahydroindolo[4,3-fg]quinoline-9-carboxamide] | 94.7% | 28.1% | 93.4% | 90.5% | – | – | – | – | – | – | – | – | – | –
5 | CCN(CC)C(=O)[C@H]1C=C2c3cccc4[nH]cc(c34)C[C@H]2N(CC2CCCC2)C1 [Compound 90a, (6aR,9S)-7-(cyclopentylmethyl)-N,N-diethyl-4,6,6a,7,8,9-hexahydroindolo[4,3-fg]quinoline-9-carboxamide] | – | 21.9% | 25.7% | 135% | 288 µL/min/mg | 4.8 min | > 10 µM | 158 µL/min/mg | 8.8 min | 712 µL/min/mg | 1.9 min | > 1 µM | 0.0556 µM | > 100 µM
6 | CCCN(CC)C(=O)[C@@H]1C=C2c3cccc4[nH]cc(c34)C[C@H]2N(Cc2cccc(OC)c2)C1 [Compound 93, (6aR,9R)—N-ethyl-7-(3-methoxybenzyl)-N-propyl-4,6,6a,7,8,9-hexahydroindolo[4,3-fg]quinoline-9-carboxamide] | – | 1.24% | 44.6% | 21.1% | 423 µL/min/mg | 3.3 min | > 10 µM | 152 µL/min/mg | 9.1 min | 600 µL/min/mg | 2.3 min | 1.2 µM | 0.00473 µM | > 100 µM
7 | COc1cccc(CN2C[C@H](C(=O)N3[C@@H](C)C[C@@H]3C)C=C3c4cccc5[nH]cc(c45)C[C@H]32)c1 [Compound 94, ((2S,4S)-2,4-dimethylazetidin-1-yl)((6aR,9R)-7-(3-methoxybenzyl)-4,6,6a,7,8,9-hexahydroindolo[4,3-fg]quinolin-9-yl)methanone] | – | -1.21% | 30.4% | 64.8% | 352 µL/min/mg | 3.9 min | > 10 µM | 116 µL/min/mg | 11.9 min | 1340 µL/min/mg | 1 min | 0.792 µM | 0.0137 µM | > 100 µM
8 | CC[C@@H](C)NC(=O)[C@@H]1C=C2c3cccc4[nH]cc(c34)C[C@H]2N(Cc2cccc(OC)c2)C1 [Compound 95, (6aR,9R)—N—((R)-sec-butyl)-7-(3-methoxybenzyl)-4,6,6a,7,8,9-hexahydroindolo[4,3-fg]quinoline-9-carboxamide] | – | 0.13% | 63.8% | 63.2% | 1600 µL/min/mg | 0.9 min | > 10 µM | 685 µL/min/mg | 2 min | 2020 µL/min/mg | 0.7 min | 0.642 µM | 0.0154 µM | 42.9 µM
9 | CCN(CC)C(=O)[C@@H]1C=C2c3cccc4[nH]cc(c34)C[C@H]2N(Cc2cccc(C)c2)C1 [Compound 98, (6aR,9R)—N,N-diethyl-7-(3-methylbenzyl)-4,6,6a,7,8,9-hexahydroindolo[4,3-fg]quinoline-9-carboxamide] | – | 3.37% | 76.5% | 31.2% | 717 µL/min/mg | 1.9 min | > 10 µM | 91.4 µL/min/mg | 15.2 min | 470 µL/min/mg | 3 min | 0.431 µM | 0.00826 µM | > 100 µM
10 | CCN(CC)C(=O)[C@@H]1C=C2c3cccc4[nH]cc(c34)C[C@H]2N(Cc2ccc3ccccc3c2)C1 [Compound 100, (6aR,9R)—N,N-diethyl-7-(naphthalen-2-ylmethyl)-4,6,6a,7,8,9-hexahydroindolo[4,3-fg]quinoline-9-carboxamide] | – | 18.4% | 74.6% | 68.4% | 167 µL/min/mg | 8.3 min | > 10 µM | 43.9 µL/min/mg | 31.6 min | 117 µL/min/mg | 11.8 min | 1.08 µM | 0.00384 µM | 20.8 µM
11 | CCN(CC)C(=O)[C@@H]1C=C2c3cccc4[nH]cc(c34)C[C@H]2N(Cc2cccc3ccccc23)C1 [Compound 101, (6aR,9R)—N,N-diethyl-7-(naphthalen-1-ylmethyl)-4,6,6a,7,8,9-hexahydroindolo[4,3-fg]quinoline-9-carboxamide] | – | 11.7% | 86.5% | 61.8% | 525 µL/min/mg | 2.6 min | > 10 µM | 84.6 µL/min/mg | 16.4 min | 483 µL/min/mg | 2.9 min | 0.271 µM | 0.0245 µM | 71.1 µM

From patent publication US20260317319A1, “NOVEL ERGOLINES AND METHODS OF TREATING MOOD DISORDERS” (Gilgamesh Pharma Inc., priority 2023, published 2026)
